Experimental findings from PubChem BioAssay (NCI) are described below.

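Results reflect a 48-hour exposure of cells in 96-well plates to compound at five concentrations. TGI is the concentration that stops growth completely.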

For the first assay, the system named is A498 renal. Nature of the assay: inhibition of tumour cell growth, NCI panel, 48 h.
In turn, `COc1ccc2c(C(=O)O)cc3ccccc3c2c1OC` had a TGI of 40.7 µM.
As for `Cc1ccccc1C(CCCO)C(=O)O` (stereo not given), the TGI was more than 100 µM.
In the case of `COc1ccc(-c2c(C3=NCCCN3)nnn2-c2ccccc2)cc1`, the TGI is more than 100 µM.

The subject of the next assay is HT29 colon. The experiment in a line: inhibition of tumour cell growth, NCI panel, 48 h.
In turn, `CC(C)(CN1CCCCC1)C(=O)/C=C/c1ccc(Br)cc1` displayed a TGI of 12.6 µM.
The same measure, in the same setting: in the case of `COc1ccc2c(C(=O)O)cc3ccccc3c2c1OC` it was 48.9 µM; in that of `Cc1ccccc1C(CCCO)C(=O)O` (stereo not given), more than 100 µM; in that of `COc1ccc(-c2c(C3=NCCCN3)nnn2-c2ccccc2)cc1`, more than 100 µM.

A further assay concerns OVCAR-3 ovarian. The experiment in a line: inhibition of tumour cell growth, NCI panel, 48 h.
For the compound `CC(C)(CN1CCCCC1)C(=O)/C=C/c1ccc(Br)cc1`, the TGI came to 5.51 µM.
As to `COc1ccc2c(C(=O)O)cc3ccccc3c2c1OC`, the TGI is 32.7 µM.
Compound `Cc1ccccc1C(CCCO)C(=O)O` (stereo not given) gave a TGI of more than 100 µM.
Compound `COc1ccc(-c2c(C3=NCCCN3)nnn2-c2ccccc2)cc1` registered a TGI of more than 100 µM.

For the next assay, the system named is SN12C renal. Nature of the assay: inhibition of tumour cell growth, NCI panel, 48 h.
With `CC(C)(CN1CCCCC1)C(=O)/C=C/c1ccc(Br)cc1`, the TGI came to 7.66 µM.
The same measure, in the same setting: in the case of `COc1ccc2c(C(=O)O)cc3ccccc3c2c1OC` it was 53.1 µM; in that of `Cc1ccccc1C(CCCO)C(=O)O` (stereo not given), more than 100 µM.
Still for that read-out and setting: in the case of `COc1ccc(-c2c(C3=NCCCN3)nnn2-c2ccccc2)cc1` it was more than 100 µM.

The test system of another assay is DMS 114 small cell lung. Nature of the assay: inhibition of tumour cell growth, NCI panel, 48 h.
For the compound `CC(C)(CN1CCCCC1)C(=O)/C=C/c1ccc(Br)cc1`, the TGI turned out to be 3.44 µM.
Regarding `COc1ccc2c(C(=O)O)cc3ccccc3c2c1OC`, the TGI came to 38 µM.
Compound `Cc1ccccc1C(CCCO)C(=O)O` (stereo not given) came in with a TGI of more than 100 µM.
Turning to `COc1ccc(-c2c(C3=NCCCN3)nnn2-c2ccccc2)cc1`, the TGI was more than 100 µM.

The subject of a further assay is SF-539 CNS. The experiment in a line: inhibition of tumour cell growth, NCI panel, 48 h.
`CC(C)(CN1CCCCC1)C(=O)/C=C/c1ccc(Br)cc1` registered a TGI of 4.96 µM.
With `COc1ccc2c(C(=O)O)cc3ccccc3c2c1OC`, the TGI worked out at 57.7 µM.
Same read-out and setting: in the case of `Cc1ccccc1C(CCCO)C(=O)O` (stereo not given) it was more than 100 µM; in that of `COc1ccc(-c2c(C3=NCCCN3)nnn2-c2ccccc2)cc1`, more than 100 µM.

For another assay, the system named is ACHN renal. Nature of the assay: inhibition of tumour cell growth, NCI panel, 48 h.
On to `CC(C)(CN1CCCCC1)C(=O)/C=C/c1ccc(Br)cc1`, for which the TGI is 14.5 µM.
For the compound `COc1ccc2c(C(=O)O)cc3ccccc3c2c1OC`, the TGI is 29.8 µM.
The compound `Cc1ccccc1C(CCCO)C(=O)O` (stereo not given) returned a TGI of more than 100 µM.
`COc1ccc(-c2c(C3=NCCCN3)nnn2-c2ccccc2)cc1` registered a TGI of more than 100 µM.

For a further assay, the system named is OVCAR-4 ovarian. Nature of the assay: inhibition of tumour cell growth, NCI panel, 48 h.
In the case of `CC(C)(CN1CCCCC1)C(=O)/C=C/c1ccc(Br)cc1`, the TGI is 19.3 µM.
In turn, `Cc1ccccc1C(CCCO)C(=O)O` (stereo not given) showed a TGI of more than 100 µM.
Still for that read-out and setting: in the case of `COc1ccc(-c2c(C3=NCCCN3)nnn2-c2ccccc2)cc1` it was more than 100 µM.

Another assay deals with UACC-257 melanoma. The experiment in a line: inhibition of tumour cell growth, NCI panel, 48 h.
Compound `CC(C)(CN1CCCCC1)C(=O)/C=C/c1ccc(Br)cc1` had a TGI of 20.3 µM.
In turn, `COc1ccc2c(C(=O)O)cc3ccccc3c2c1OC` had a TGI of 35.9 µM.
`Cc1ccccc1C(CCCO)C(=O)O` (stereo not given) showed a TGI of more than 100 µM.
In turn, `COc1ccc(-c2c(C3=NCCCN3)nnn2-c2ccccc2)cc1` showed a TGI of more than 100 µM.

A further assay has as its system MOLT-4 leukemia. The experiment in a line: inhibition of tumour cell growth, NCI panel, 48 h.
For `CC(C)(CN1CCCCC1)C(=O)/C=C/c1ccc(Br)cc1`, the TGI is 6.87 µM.
In the case of `COc1ccc2c(C(=O)O)cc3ccccc3c2c1OC`, the TGI was more than 100 µM.
The compound `Cc1ccccc1C(CCCO)C(=O)O` (stereo not given) had a TGI of more than 100 µM.
Same read-out and setting: in the case of `COc1ccc(-c2c(C3=NCCCN3)nnn2-c2ccccc2)cc1` it was more than 100 µM.

The next assay relates to LOX IMVI melanoma. Nature of the assay: inhibition of tumour cell growth, NCI panel, 48 h.
`CC(C)(CN1CCCCC1)C(=O)/C=C/c1ccc(Br)cc1` gave a TGI of 4.63 µM.
In the case of `COc1ccc2c(C(=O)O)cc3ccccc3c2c1OC`, the TGI was 35 µM.
As to `Cc1ccccc1C(CCCO)C(=O)O` (stereo not given), the TGI is more than 100 µM.
Compound `COc1ccc(-c2c(C3=NCCCN3)nnn2-c2ccccc2)cc1` yielded a TGI of more than 100 µM.

A further assay deals with HCC-2998 colon. The experiment in a line: inhibition of tumour cell growth, NCI panel, 48 h.
The compound `CC(C)(CN1CCCCC1)C(=O)/C=C/c1ccc(Br)cc1` came in with a TGI of 31.7 µM.
`COc1ccc2c(C(=O)O)cc3ccccc3c2c1OC` registered a TGI of 46.8 µM.
`COc1ccc(-c2c(C3=NCCCN3)nnn2-c2ccccc2)cc1`: the TGI is more than 100 µM.

A further assay deals with U251 CNS. The experiment in a line: inhibition of tumour cell growth, NCI panel, 48 h.
Regarding `CC(C)(CN1CCCCC1)C(=O)/C=C/c1ccc(Br)cc1`, the TGI stood at 8.11 µM.
Same read-out and setting: in the case of `COc1ccc2c(C(=O)O)cc3ccccc3c2c1OC` it was more than 100 µM; in that of `Cc1ccccc1C(CCCO)C(=O)O` (stereo not given), more than 100 µM; in that of `COc1ccc(-c2c(C3=NCCCN3)nnn2-c2ccccc2)cc1`, more than 100 µM.

The test system of a further assay is HOP-92 NSCLC. The experiment in a line: inhibition of tumour cell growth, NCI panel, 48 h.
For `CC(C)(CN1CCCCC1)C(=O)/C=C/c1ccc(Br)cc1`, the TGI came to 4.1 µM.
In the case of `COc1ccc2c(C(=O)O)cc3ccccc3c2c1OC`, the TGI is 44.3 µM.
The compound `Cc1ccccc1C(CCCO)C(=O)O` (stereo not given) returned a TGI of more than 100 µM.
Consider `COc1ccc(-c2c(C3=NCCCN3)nnn2-c2ccccc2)cc1`, for which the TGI is more than 100 µM.

Another assay relates to SNB-78 CNS. Nature of the assay: inhibition of tumour cell growth, NCI panel, 48 h.
Turning to `CC(C)(CN1CCCCC1)C(=O)/C=C/c1ccc(Br)cc1`, the TGI came to 31.6 µM.
For the compound `COc1ccc2c(C(=O)O)cc3ccccc3c2c1OC`, the TGI turned out to be 33.4 µM.
